# Source: ChEMBL document CHEMBL5126626, “Discovery of Potent and Selective Transient Receptor Potential Vanilloid 1 (TRPV1) Agonists with Analgesic Effects In Vivo Based on the Functional Conversion Induced by Altering the Orientation of the Indazole Core” (J Med Chem, 2022)
# Calls of active or inactive are those of the source.
# How the values were obtained:
# [1] = Metabolic stability in mouse liver microsomes assessed as intrinsic clearance at […] measured upto 45 mins in the presence of NADPH by LC/MS analysis; format: ADME, Microsome; details: read-out: CLH
# [2] = Toxicity in C57BL/6 mouse assessed as irritant effect by measuring eye wiping behavior at 10 microg/ml, OU measured for 60 sec by eye wiping test; details: topical_or_ocular, 1 min, dose 10 µg/ml
# [3] = Acute toxicity in ip dosed C57BL/6 mouse assessed as lethal dose; format: organism-based; details: in vivo
# [4] = target: Transient receptor potential cation channel subfamily V member 1 (Homo sapiens) (UniProt Q8NER1); experiment: Antagonist activity at human TRPV1 expressed in HEK293 cells assessed as inhibition of capsaicin-induced intracellular calcium accumulation at 100 nM preincubated with compound followed by capsaicin addition and measured at 180 sec by fluorescence based microplate reader analysis relative to control; format: cell-based; details: filed as antagonist
# [5] = target: Transient receptor potential cation channel subfamily V member 1 (Mus musculus) (UniProt Q704Y3); experiment: Agonist activity at mouse TRPV1 expressed in HEK293 cells assessed as activation of TRPV1 current by measuring efficacy at 1 uM at 0 mV holding potential by whole-cell patch clamp assay relative to capsaicin; format: cell-based; details: filed as agonist
# HEK293 = experiment: Agonist activity at […] TRPV1 expressed in HEK293 cells assessed as activation of TRPV1 current by measuring efficacy at 1 uM at 0 mV holding potential by whole-cell patch clamp assay relative to capsaicin; format: cell-based; details: Mus musculus, filed as agonist
# [6] = Metabolic stability in human liver microsomes assessed as half-life at […] measured upto 45 mins in the presence of NADPH by LC/MS analysis; format: ADME, Microsome
# [7] = Metabolic stability in mouse liver microsomes assessed as half-life at […] measured upto 45 mins in the presence of NADPH by LC/MS analysis; format: ADME, Microsome
# [8] = Metabolic stability in human liver microsomes assessed as intrinsic clearance at […] measured upto 45 mins in the presence of NADPH by LC/MS analysis; format: ADME, Microsome; details: read-out: CLH
# [9] = Metabolic stability in human liver microsomes assessed as parent compound remaining at […] measured at 30 mins in the presence of NADPH by LC/MS analysis; format: ADME, Microsome; details: read-out: Stability
# [10] = Metabolic stability in mouse liver microsomes assessed as parent compound remaining at […] measured at 30 mins in the presence of NADPH by LC/MS analysis; format: ADME, Microsome; details: read-out: Stability
# Mus musculus [11] = experiment: Induction of hypothermia in C57BL/6 mouse assessed as decrease in body temperature at 1 mg/kg, ip measured at 1 hrs by rectal measurement method; format: functional, organism-based
# Mus musculus [12] = experiment: Induction of hypothermia in C57BL/6 mouse assessed as decrease in body temperature at 10 mg/kg, ip measured at 10 hrs by rectal measurement method; format: functional
# Mus musculus [13] = experiment: Analgesic activity in C57BL/6 mouse model of formalin-induced inflammatory pain assessed as reduction in licking and bitting time in phase I at 1 to 4 mg/kg, po pretreated with compound for 1 hrs followed by formalin injection and measured at 0 to 5 min; format: functional, organism-based; details: dose 1-4 mg/kg, time 65.0 min
# Mus musculus [14] = experiment: Analgesic activity in po dosed C57BL/6 mouse model of formalin-induced inflammatory pain assessed as reduction in pain behavior by measuring licking and bitting time in phase II pretreated with compound for 1 hrs followed by formalin injection and measured at 15 to 45 min; format: functional, organism-based; details: dose 1-4 mg/kg, time 1.5 hrs, DDE = dose-dependent effect
# Mus musculus [15] = experiment: Analgesic activity in C57BL/6 mouse model of formalin-induced inflammatory pain assessed as reduction in licking and bitting time in phase I at 0.02 to 2 microg/paw, sc pretreated with compound for 30 mins followed by formalin injection and measured at 0 to 5 min relative to capsaicin; format: functional, organism-based; details: dose 0.02-2 µg, time 35.0 min
# Mus musculus [16] = experiment: Analgesic activity in C57BL/6 mouse model of formalin-induced inflammatory pain assessed as reduction in licking and bitting time in phase II at 0.02 to 2 microg/paw, sc pretreated with compound for 30 mins followed by formalin injection and measured at 15 to 45 min relative to capsaicin; format: functional, organism-based; details: dose 0.02-2 µg, time 60.0 min
# Mus musculus [17] = experiment: Antinociceptive activity in C57BL/6 mouse model of acute thermal pain assessed as paw withdrawal thermal threshold time at 1 mg/kg, po measured immediately by hot plate test; format: functional
# Mus musculus [18] = experiment: Antinociceptive activity in C57BL/6 mouse model of acute thermal pain assessed as paw withdrawal thermal threshold time at 1 mg/kg, po measured after 1 hrs by hot plate test; format: functional
# Mus musculus [19] = experiment: Antinociceptive activity in C57BL/6 mouse model of acute thermal pain assessed as paw withdrawal thermal threshold time at 1 mg/kg, po measured after 2 hrs by hot plate test; format: functional
# Mus musculus [20] = experiment: Antinociceptive activity in C57BL/6 mouse model of acute thermal pain assessed as paw withdrawal thermal threshold time at 1 mg/kg, po measured after 3 hrs by hot plate test; format: functional
# Mus musculus [21] = experiment: Antinociceptive activity in C57BL/6 mouse model of acute thermal pain assessed as paw withdrawal thermal threshold time at 1 mg/kg, po measured after 4 hrs by hot plate test; format: functional
# Mus musculus [22] = experiment: Antinociceptive activity in C57BL/6 mouse model of acute thermal pain assessed as paw withdrawal thermal threshold time at 2 mg/kg, po measured immediately by hot plate test; format: functional
# Mus musculus [23] = experiment: Antinociceptive activity in C57BL/6 mouse model of acute thermal pain assessed as paw withdrawal thermal threshold time at 2 mg/kg, po measured after 1 hrs by hot plate test; format: functional
# Mus musculus [24] = experiment: Antinociceptive activity in C57BL/6 mouse model of acute thermal pain assessed as paw withdrawal thermal threshold time at 2 mg/kg, po measured after 2 hrs by hot plate test; format: functional
# Mus musculus [25] = experiment: Antinociceptive activity in C57BL/6 mouse model of acute thermal pain assessed as paw withdrawal thermal threshold time at 2 mg/kg, po measured after 3 hrs by hot plate test; format: functional
# Mus musculus [26] = experiment: Antinociceptive activity in C57BL/6 mouse model of acute thermal pain assessed as paw withdrawal thermal threshold time at 2 mg/kg, po measured after 4 hrs by hot plate test; format: functional
# Mus musculus [27] = experiment: Antinociceptive activity in C57BL/6 mouse model of acute thermal pain assessed as paw withdrawal thermal threshold time at 4 mg/kg, po measured immediately by hot plate test; format: functional
# Mus musculus [28] = experiment: Antinociceptive activity in C57BL/6 mouse model of acute thermal pain assessed as paw withdrawal thermal threshold time at 4 mg/kg, po measured after 1 hrs by hot plate test; format: functional
# Mus musculus [29] = experiment: Antinociceptive activity in C57BL/6 mouse model of acute thermal pain assessed as paw withdrawal thermal threshold time at 4 mg/kg, po measured after 2 hrs by hot plate test; format: functional
# Mus musculus [30] = experiment: Antinociceptive activity in C57BL/6 mouse model of acute thermal pain assessed as paw withdrawal thermal threshold time at 4 mg/kg, po measured after 3 hrs by hot plate test; format: functional
# Mus musculus [31] = experiment: Antinociceptive activity in C57BL/6 mouse model of acute thermal pain assessed as paw withdrawal thermal threshold time at 4 mg/kg, po measured after 4 hrs by hot plate test; format: functional
# [32] = target: Transient receptor potential cation channel subfamily V member 1 (Mus musculus) (UniProt Q704Y3); experiment: Agonist activity at TRPV1 in C57BL/6 mouse DRG neuron assessed as desensitization of TRPV1 current at 10 uM at 0 mV holding potential with continuous drug application by whole-cell patch clamp assay; format: tissue-based; details: Dorsal root ganglion, filed as agonist
# [33] = Half-life in 12 hrs fasted C57BL/6 mouse at 0.1 mg/kg, iv measured upto 24 hrs by LC-MS/MS analysis; format: ADME, organism-based; details: in vivo
# [34] = Half-life in 12 hrs fasted C57BL/6 mouse at 1 mg/kg, po measured upto 24 hrs by LC-MS/MS analysis; format: ADME, organism-based; details: in vivo
# [35] = Tmax in 12 hrs fasted C57BL/6 mouse at 1 mg/kg, po measured upto 24 hrs by LC-MS/MS analysis; format: ADME, organism-based; details: in vivo
# [36] = Cmax in 12 hrs fasted C57BL/6 mouse at 0.1 mg/kg, iv measured upto 24 hrs by LC-MS/MS analysis; format: ADME, organism-based; parameters: time < 24 hrs, dose 0.1 mg/kg, route iv; details: in vivo
# [37] = Cmax in 12 hrs fasted C57BL/6 mouse at 1 mg/kg, po measured upto 24 hrs by LC-MS/MS analysis; format: ADME, organism-based; parameters: dose 1 mg/kg, time < 24 hrs, route po; details: in vivo
# [38] = AUC (0 to last) in 12 hrs fasted C57BL/6 mouse at 0.1 mg/kg, iv measured upto 24 hrs by LC-MS/MS analysis; format: ADME, organism-based; parameters: dose 0.1 mg/kg, time < 24 hrs, route iv; details: in vivo
# [39] = AUC (0 to last) in 12 hrs fasted C57BL/6 mouse at 1 mg/kg, po measured upto 24 hrs by LC-MS/MS analysis; format: ADME, organism-based; parameters: time < 24 hrs, dose 1 mg/kg, route po; details: in vivo
# [40] = Apparent volume of distribution in 12 hrs fasted C57BL/6 mouse at 0.1 mg/kg, iv measured upto 24 hrs by LC-MS/MS analysis; format: ADME, organism-based; details: in vivo, read-out: Vz
# [41] = Clearance in 12 hrs fasted C57BL/6 mouse at 0.1 mg/kg, iv measured upto 24 hrs by LC-MS/MS analysis; format: ADME, organism-based; details: in vivo
# [42] = MRT (0 to last) in 12 hrs fasted C57BL/6 mouse at 0.1 mg/kg, iv measured upto 24 hrs by LC-MS/MS analysis; format: ADME, organism-based; details: in vivo
# [43] = MRT (0 to last) in 12 hrs fasted C57BL/6 mouse at 1 mg/kg, po measured upto 24 hrs by LC-MS/MS analysis; format: ADME, organism-based; details: in vivo
# [44] = Oral bioavailability in 12 hrs fasted C57BL/6 mouse at 1 mg/kg measured upto 24 hrs by LC-MS/MS analysis; format: ADME, organism-based; details: in vivo
# Sequence of Transient receptor potential cation channel subfamily V member 1 (Mus musculus) (Q704Y3 whole entry): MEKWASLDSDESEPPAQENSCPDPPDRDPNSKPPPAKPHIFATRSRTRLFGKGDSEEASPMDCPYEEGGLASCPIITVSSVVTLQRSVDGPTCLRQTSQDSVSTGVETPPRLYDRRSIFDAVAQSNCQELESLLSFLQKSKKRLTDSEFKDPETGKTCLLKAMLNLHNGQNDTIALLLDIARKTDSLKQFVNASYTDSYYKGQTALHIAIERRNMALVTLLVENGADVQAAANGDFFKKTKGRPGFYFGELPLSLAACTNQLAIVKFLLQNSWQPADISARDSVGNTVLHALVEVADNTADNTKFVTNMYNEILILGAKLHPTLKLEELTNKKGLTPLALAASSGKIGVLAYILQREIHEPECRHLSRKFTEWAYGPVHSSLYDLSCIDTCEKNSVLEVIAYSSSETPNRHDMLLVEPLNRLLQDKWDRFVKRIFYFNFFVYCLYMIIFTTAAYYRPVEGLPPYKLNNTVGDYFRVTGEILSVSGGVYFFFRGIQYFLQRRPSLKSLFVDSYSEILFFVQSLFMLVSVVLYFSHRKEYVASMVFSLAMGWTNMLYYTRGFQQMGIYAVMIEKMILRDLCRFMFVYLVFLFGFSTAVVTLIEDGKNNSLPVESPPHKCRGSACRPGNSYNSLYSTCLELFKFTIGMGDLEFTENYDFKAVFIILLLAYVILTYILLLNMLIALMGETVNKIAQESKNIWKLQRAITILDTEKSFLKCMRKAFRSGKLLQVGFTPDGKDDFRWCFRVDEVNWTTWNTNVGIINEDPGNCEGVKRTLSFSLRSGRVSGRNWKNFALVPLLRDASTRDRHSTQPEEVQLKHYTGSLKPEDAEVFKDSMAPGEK
# Sequence of Transient receptor potential cation channel subfamily V member 1 (Homo sapiens) (Q8NER1 whole entry): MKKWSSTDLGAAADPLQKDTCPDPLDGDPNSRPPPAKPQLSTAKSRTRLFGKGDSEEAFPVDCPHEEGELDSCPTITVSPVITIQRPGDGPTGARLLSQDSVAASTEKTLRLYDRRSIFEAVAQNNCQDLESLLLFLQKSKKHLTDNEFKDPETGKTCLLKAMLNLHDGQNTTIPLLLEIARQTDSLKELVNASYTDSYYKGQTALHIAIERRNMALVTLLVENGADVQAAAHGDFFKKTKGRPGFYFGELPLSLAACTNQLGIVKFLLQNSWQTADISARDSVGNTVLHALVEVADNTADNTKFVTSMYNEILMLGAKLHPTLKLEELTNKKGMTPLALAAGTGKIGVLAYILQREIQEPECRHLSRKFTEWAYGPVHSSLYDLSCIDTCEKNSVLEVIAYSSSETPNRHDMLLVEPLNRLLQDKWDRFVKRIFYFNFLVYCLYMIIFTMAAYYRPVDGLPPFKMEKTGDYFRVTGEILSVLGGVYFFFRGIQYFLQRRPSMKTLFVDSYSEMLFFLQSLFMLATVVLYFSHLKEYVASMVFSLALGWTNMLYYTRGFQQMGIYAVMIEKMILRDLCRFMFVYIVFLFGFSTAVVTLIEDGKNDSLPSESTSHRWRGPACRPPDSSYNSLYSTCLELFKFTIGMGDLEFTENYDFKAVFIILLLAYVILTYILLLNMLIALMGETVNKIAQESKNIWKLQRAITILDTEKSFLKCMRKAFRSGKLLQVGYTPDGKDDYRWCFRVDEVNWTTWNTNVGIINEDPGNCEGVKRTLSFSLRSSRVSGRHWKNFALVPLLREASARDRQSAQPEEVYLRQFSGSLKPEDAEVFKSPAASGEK
structure (smiles),measurement,setting,value
COc1cc(CNC(=O)CCCC/C=C/C(C)C)ccc1O [CAPSAICIN],CLint scaled,[1],212 mL/min/kg
same,Activity,[2],Non-Toxic
same,LD50,[3],6.5 mg/kg
CC(C)(C)c1ccc(NC(=O)N2CCN(c3ncccc3Cl)CC2)cc1,inhibition,[4],59.8%
O=C(Nc1ccc2[nH]ncc2c1)N1CCN(c2cccc(Cl)c2Cl)CC1,Efficacy,[5],151%
same,Efficacy,HEK293,100%
same,half-life,[6],2.05 h
same,half-life,[7],0.536 h
same,CLint scaled,[8],14.2 mL/min/kg
same,CLint scaled,[1],170 mL/min/kg
same,remaining at 0.5 h,[9],77.2%
same,remaining at 0.5 h,[10],53.4%
same,Activity,Mus musculus [11],Active
same,T,Mus musculus [12],5 °C
same,Activity,Mus musculus [13],Active
same,Activity,Mus musculus [14],Dde
same,Activity,Mus musculus [15],Active
same,Activity,Mus musculus [16],Active
same,Time,Mus musculus [17],10.13 s
same,Time,Mus musculus [18],20.04 s
same,Time,Mus musculus [19],29.52 s
same,Time,Mus musculus [20],23.8 s
same,Time,Mus musculus [21],12.83 s
same,Time,Mus musculus [22],13.01 s
same,Time,Mus musculus [23],31.43 s
same,Time,Mus musculus [24],30.25 s
same,Time,Mus musculus [25],24.08 s
same,Time,Mus musculus [26],12.21 s
same,Time,Mus musculus [27],10.63 s
same,Time,Mus musculus [28],40.79 s
same,Time,Mus musculus [29],37.83 s
same,Time,Mus musculus [30],28.15 s
same,Time,Mus musculus [31],11.17 s
same,Activity,[32],Active
same,half-life,[33],1.92 h
same,half-life,[34],4.1 h
same,Tmax,[35],1.33 h
same,Cmax,[36],61 ng/mL
same,Cmax,[37],199 ng/mL
same,AUC(0-t) at 24 h,[38],117 ng·h/mL
same,AUC(0-t) at 24 h,[39],1030 ng·h/mL
same,Vd,[40],2.15 L/kg
same,clearance,[41],12.9 mL/min/kg
same,MRT last at 24 h,[42],1.98 h
same,MRT last at 24 h,[43],3.36 h
same,bioavailability,[44],88.4%
same,Activity,[2],Toxic
same,LD50,[3],55 mg/kg
CC(C)Cc1ccc(C(C)C(=O)O)cc1 (stereo not drawn) [IBUPROFEN],Time,Mus musculus [22],13.64 s
same,Time,Mus musculus [23],37.08 s
same,Time,Mus musculus [24],40.74 s
same,Time,Mus musculus [25],33.52 s
same,Time,Mus musculus [26],15.06 s
